We go through 14 molecules from US9681664B2, “Macrocyclic picolinamides as fungicides” (Dow Agrosciences LLC, priority 2012, dated 2017).

What all share (type): in vivo
Assay [1] deals with Glomerella lagenarium; Anamorph: Colletotrichum lagenarium. As to the kind of experiment: Cucumber anthracnose (COLLLA) disease control. The following applies: Colletotrichum orbiculare, 24 h, 1 Day Protectant, high volume, read-out: Disease Control COLLLA 1 DP. The method, then:
Technical grades of materials were dissolved in acetone, which were then mixed with nine volumes of water containing 110 ppm Triton X-100. The fungicide solutions were applied onto wheat seedlings using an automated booth sprayer to run-off. All sprayed plants were allowed to air dry prior to further handling. All fungicides were evaluated using the aforementioned method for their activity vs. all target diseases. Wheat leaf blotch and brown rust activity were also evaluated using track spray applications, in which case the fungicides were formulated as EC formulations, containing 0.1% Trycol 5941 in the spray solutions. Cucumber seedlings (variety Bush Pickle) were propagated in soil-less Metro mix, with each pot having one plant, and used in the test when 12 to 14 days old. Test plants were inoculated with an aqueous spore suspension of Colletotrichum lagenarium 24 hr after fungicide treatments. After inoculation the plants were kept in a dew room at 22° C. with 100% relative humidity for 48 hr to permit spores to germinate and infect the leaf. The plants were then transferred to a growth room set at 22° C. for disease to develop. Fungicide formulation, application and disease assessment on the sprayed leaves followed the procedures as described in the Example A.

Assay [2] relates to Alternaria solani. Description: Tomato early blight (ALTESO) disease control. The following applies: 24 h, 1 Day Protectant, high volume, read-out: Disease Control ALTESO 1 DP. The method, then: Technical grades of materials were dissolved in acetone, which were then mixed with nine volumes of water containing 110 ppm Triton X-100. The fungicide solutions were applied onto wheat seedlings using an automated booth sprayer to run-off. All sprayed plants were allowed to air dry prior to further handling. All fungicides were evaluated using the aforementioned method for their activity vs. all target diseases. Wheat leaf blotch and brown rust activity were also evaluated using track spray applications, in which case the fungicides were formulated as EC formulations, containing 0.1% Trycol 5941 in the spray solutions. Tomato plants (variety Outdoor girl) were propagated in soil-less Metro mix, with each pot having one plant, and used when 12 to 14 days old. Test plants were inoculated with an aqueous spore suspension of Alternaria solani 24 hr after fungicide treatments. After inoculation the plants were kept in 100% relative humidity (one day in a dark dew chamber followed by two to three days in a lighted dew chamber at 20° C.) to permit spores to germinate and infect the leaf. The plants were then transferred to a growth room at 22° C. for disease to develop. Fungicide formulation, application and disease assessment on the sprayed leaves followed the procedures as described in the Example A.

Assay [3] concerns Uncinula necator. As to the kind of experiment: Grape powdery mildew (UNCINE) disease control. The settings on record: Erysiphe necator, 24 h, High volume application, 1 Day Protectant, read-out: UNCINE 1 DP disease control. The method, then:
Technical grades of materials were dissolved in acetone, which were then mixed with nine volumes of water containing 110 ppm Triton X-100. The fungicide solutions were applied onto wheat seedlings using an automated booth sprayer to run-off. All sprayed plants were allowed to air dry prior to further handling. All fungicides were evaluated using the aforementioned method for their activity vs. all target diseases. Wheat leaf blotch and brown rust activity were also evaluated using track spray applications, in which case the fungicides were formulated as EC formulations, containing 0.1% Trycol 5941 in the spray solutions. Grape seedlings (variety Carignane) were grown in soil-less Metro mix, with one plant per pot, and used in the test when approximately one month old. Plants were inoculated 24 hr after fungicide treatment by shaking spores from infected leaves over test plants. Plants were maintained in a greenhouse set at 20° C. until disease was fully developed. Fungicide formulation, application and disease assessment on the sprayed leaves followed the procedures as described in the Example A.

Assay [4] has as its system Erysiphe cichoracearum. As to the kind of experiment: Powdery mildew of cucumber (ERYSCI) disease control. The following applies: Golovinomyces cichoracearum, 24 h, 1 Day Protectant, high volume, read-out: Disease Control ERYSCI 1 DP. The method, then: Technical grades of materials were dissolved in acetone, which were then mixed with nine volumes of water containing 110 ppm Triton X-100. The fungicide solutions were applied onto wheat seedlings using an automated booth sprayer to run-off. All sprayed plants were allowed to air dry prior to further handling. All fungicides were evaluated using the aforementioned method for their activity vs. all target diseases. Wheat leaf blotch and brown rust activity were also evaluated using track spray applications, in which case the fungicides were formulated as EC formulations, containing 0.1% Trycol 5941 in the spray solutions. Cucumber seedlings (variety Bush Pickle) were grown in soil-less Metro mix, with one plant per pot, and used in the test when 12 to 14 days old. Plants were inoculated with a spore suspension 24 hr following fungicide treatments. After inoculation the plants remained in the greenhouse set at 20° C. until disease was fully expressed. Fungicide formulation, application and disease assessment on the sprayed leaves followed the procedures as described in the Example A.

Assay [5] deals with Puccinia triticina; Synonym: Puccinia recondite f. sp. tritici. As to the kind of experiment: Wheat brown rust (PUCCRT) disease control on wheat seedlings. The settings on record: Puccinia triticina, High volume application, 100 ppm. The method in brief: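 Acetone solutions diluted in nine volumes of water with 110 ppm Triton X-100 sprayed to run-off on first-leaf Yuma wheat seedlings (track spray: EC with 0.1% Trycol 5941). Puccinia triticina spores inoculated before or after treatment; overnight dark dew at 22° C., 100% RH, then greenhouse at 24° C. for disease development.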

Assay [6] concerns Rhyncosporium secalis. Description: Barley scald (RHYNSE) disease control. The following applies: 24 h, High volume application, 1 Day Protectant, read-out: RHYNSE 1 DP disease control. The method, then: Technical grades of materials were dissolved in acetone, which were then mixed with nine volumes of water containing 110 ppm Triton X-100. The fungicide solutions were applied onto wheat seedlings using an automated booth sprayer to run-off. All sprayed plants were allowed to air dry prior to further handling. All fungicides were evaluated using the aforementioned method for their activity vs. all target diseases. Wheat leaf blotch and brown rust activity were also evaluated using track spray applications, in which case the fungicides were formulated as EC formulations, containing 0.1% Trycol 5941 in the spray solutions. Barley seedlings (variety Harrington) were propagated in soil-less Metro mix, with each pot having 8 to 12 plants, and used in the test when first leaf was fully emerged. Test plants were inoculated by an aqueous spore suspension of Rhyncosporium secalis 24 hr after fungicide treatments. After inoculation the plants were kept in a dew room at 20° C. with 100% relative humidity for 48 hr. The plants were then transferred to a greenhouse set at 20° C. for disease to develop. Fungicide formulation, application and disease assessment on the sprayed leaves followed the procedures as described in the Example A.

Where [7] appears, read: 24 h, 1 Day Protectant, read-out: PUCCRT 1DP disease control.
[8] abbreviates: 72 h, 3 Day Curative, read-out: PUCCRT 3DC disease control.

Where two headings read alike, the source gives them in different places.

Take `COc1ccnc(C(=O)N[C@H]2CCC[C@H](OCc3ccccc3)[C@@H](OCc3ccccc3)[C@H](C)OC2=O)c1OCOC(C)=O` [F30]: the pest or weed control at 100 ppm in assay [1] fell in the range of 80 to 100%; in assay [2] it was 0 to 80%; in assay [3], 0 to 80%; in assay [4], 0 to 80%; in assay [5] (setting [7]), 80 to 100%; in assay [5] (setting [8]) it was 80 to 100%.

Turning to `COc1ccc(O[C@H]2CCC[C@H](NC(=O)c3nccc(OC)c3OCOC(=O)C(C)C)C(=O)O[C@@H](C)[C@@H]2OC2CCCC2)cc1` [F169], the pest or weed control at 100 ppm lay within 80 to 100% in assay [2]; 0 to 80% in assay [3]; 80 to 100% in assay [4]; 80 to 100% in assay [6]; 80 to 100% in assay [5] (setting [7]); 80 to 100% in assay [5] (setting [8]).

`COc1ccnc(C(=O)N[C@H]2CCC[C@H](Oc3ccccc3)[C@@H](OCCCc3ccccc3)[C@H](C)OC2=O)c1OCOC(C)=O` [F130]: the pest or weed control at 100 ppm in assay [2] was 80 to 100%; in assay [3] it was 0 to 80%; in assay [4], 80 to 100%; in assay [6], 80 to 100%; in assay [5] (setting [7]), 80 to 100%; in assay [5] (setting [8]), 80 to 100%.

As to `COc1ccnc(C(=O)N[C@H]2CCC[C@H](OCC(C)C)[C@@H](OC3CCCC3)[C@H](C)OC2=O)c1OCOC(=O)C(C)C` [F38], the pest or weed control at 100 ppm in assay [1], in assay [2], in assay [3], in assay [4], in assay [5] (setting [7]) and in assay [5] (setting [8]) was 80 to 100% each time.

For the molecule `COc1ccnc(C(=O)N[C@H]2CCC[C@H](OCCCC(F)(F)F)[C@@H](OC3CCCC3)[C@H](C)OC2=O)c1OCOC(C)=O` [F172], the pest or weed control at 100 ppm lay within 80 to 100% in assay [2]; 0 to 80% in assay [3]; 80 to 100% in assay [4]; 80 to 100% in assay [6]; 80 to 100% in assay [5] (setting [7]); 80 to 100% in assay [5] (setting [8]).

Turning to `COc1ccnc(C(=O)N[C@H]2CCC[C@H](OC3CCCC3)[C@@H](OCCCc3ccccc3)[C@H](C)OC2=O)c1OCOC(C)=O` [F165], the pest or weed control at 100 ppm fell in the range of 80 to 100% in assay [2]; 0 to 80% in assay [3]; 0 to 80% in assay [4]; 80 to 100% in assay [6]; 80 to 100% in assay [5] (setting [7]); 80 to 100% in assay [5] (setting [8]).

With `COc1ccnc(C(=O)N[C@H]2CCC[C@H](OCC(C)C)[C@@H](Oc3ccccc3)[C@H](C)OC2=O)c1OCOC(=O)C(C)C` [F34], the pest or weed control at 100 ppm in assay [1] lay in the range of 80 to 100%; in assay [2], 0 to 80%; in assay [3], 0 to 80%; in assay [4], 0 to 80%; in assay [5] (setting [7]), 80 to 100%; in assay [5] (setting [8]), 80 to 100%.

For `COc1ccnc(C(=O)N[C@H]2CCC[C@H](OCC(C)C)[C@@H](OCC(C)C)[C@H](C)OC2=O)c1OCOC(=O)C(C)C` [F37], the pest or weed control at 100 ppm in assay [1], in assay [2], in assay [3], in assay [4], in assay [5] (setting [7]) and in assay [5] (setting [8]) was 80 to 100% in each case.

Regarding `COc1ccnc(C(=O)N[C@H]2CCC[C@H](Oc3ccccc3)[C@@H](OCC(C)C)[C@H](C)OC2=O)c1OCOC(=O)C(C)C` [F35], the pest or weed control at 100 ppm in assay [1], in assay [2], in assay [3], in assay [4], in assay [5] (setting [7]) and in assay [5] (setting [8]) was 80 to 100% each time.

In the case of `COc1ccnc(C(=O)N[C@H]2CCC[C@H](OCC(C)C)[C@@H](Oc3ccccc3)[C@H](C)OC2=O)c1OCOC(C)=O` [F26], the pest or weed control at 100 ppm in assay [1] lay within 80 to 100%; in assay [3], 0 to 80%; in assay [4] it was 0 to 80%; in assay [5] (setting [7]) it was 80 to 100%; in assay [5] (setting [8]), 80 to 100%.

As to `COc1ccc(O[C@H]2CCC[C@H](NC(=O)c3nccc(OC)c3OCOC(C)=O)C(=O)O[C@@H](C)[C@@H]2OC2CCCC2)cc1` [F170], the pest or weed control at 100 ppm fell in the range of 80 to 100% in assay [2]; 0 to 80% in assay [3]; 0 to 80% in assay [4]; 80 to 100% in assay [6]; 80 to 100% in assay [5] (setting [7]); 80 to 100% in assay [5] (setting [8]).

Regarding `COc1ccnc(C(=O)N[C@H]2CCC[C@H](OCC(C)C)[C@@H](OCC(C)C)[C@H](C)OC2=O)c1OCOC(C)=O` [F29], the pest or weed control at 100 ppm in assay [1], in assay [2], in assay [3], in assay [4], in assay [5] (setting [7]) and in assay [5] (setting [8]) was 80 to 100% throughout.

Take `COc1ccnc(C(=O)N[C@H]2CCC[C@H](OCc3ccccc3)[C@@H](Oc3ccccc3)[C@H](C)OC2=O)c1OCOC(C)=O` [F31]: the pest or weed control at 100 ppm was 80 to 100% in assay [1]; 0 to 80% in assay [2]; 0 to 80% in assay [3]; below 0% in assay [4]; 80 to 100% in assay [5] (setting [7]); 80 to 100% in assay [5] (setting [8]).

As to `COc1ccnc(C(=O)N[C@H]2CCC[C@H](Oc3ccccc3)[C@@H](Oc3ccccc3)[C@H](C)OC2=O)c1OCOC(=O)C(C)C` [F36], the pest or weed control at 100 ppm in assay [1] was 80 to 100%; in assay [2] it was 80 to 100%; in assay [3], 0 to 80%; in assay [4] it was 0 to 80%; in assay [5] (setting [7]) it was 80 to 100%; in assay [5] (setting [8]) it was 80 to 100%.
